Data published in article PMC10186366 (ACS Pharmacology & Translational Science, 2023).

Assays:
[1] = system: PC43-10 CHO cells (expresses only human RFC); conditions: 96 h; mean (standard error); previously published; cited from earlier work
[2] = system: SHMT2 (mitochondrial C1 metabolism) in KB tumor cells; assay: Targeted metabolomics flux analysis with [2,3,3-2H]serine in KB cells; assay type: cell-based, human; conditions: 0.1 μM compound, 250 μM [2,3,3-2H]serine, versus vehicle-treated cells
Description: Serine is catabolized in the mitochondria via SHMT2, which converts serine to glycine and 5,10-methylene THF, the latter of which is metabolized by MTHFD2 to 10-CHOTHF and by MTHFD1L to formate (Figure 7).
The cells were processed for liquid chromatography–mass spectrometry (LC–MS) analysis of total serine and glycine, and deuterated serine (M + 3, M + 2, M + 1, and M + 0 serine, where M + n represents species with n deuterium atoms) and glycine (M + 1 and M + 0) isotopomers. The results are shown in Figure 8 and are compared to those for control (vehicle-treated) cells (labeled “N/A”).
Figure 8 Metabolomics flux analysis with [2,3,3-^2H]serine to assay mitochondrial C1 metabolism via SHMT2. (A) A schematic of [2,3,3-^2H]serine metabolism is shown. Heavy (^2H) atoms in serine (colored circles) are metabolized via SHMT2 initially followed by MTHFD2 and MTHFD1L to formate. (B, C) Total serine and glycine and the distribution of the serine (M + n, n = 0−3) and glycine (n = 0 or 1) isotopomers are shown. The loss of M + 3 serine corresponding to the metabolism of [2,3,3-^2H]serine to M + 1 glycine is a direct measure of SHMT2 activity in the cells.[45] Experimental methods are described in the Experimental Section. Results are shown as mean values plus/minus standard deviations (n = 3). *P < 0.05; **P < 0.01. […]
KB cells (1 × 10[6]) were seeded in each of three 60 mm dishes in folate-, serine-, and glycine-free RPMI1640 supplemented with 10% DFBS, 1% penicillin/streptomycin, 2 mM L-glutamine, 285 μM serine, 130 μM glycine, and 2 nM leucovorin. […] The targeted metabolites were quantitatively determined using the AB Sciex QTRAP 6500 LC–MS/MS system. […] Isotopomers were detected using multiple reaction monitoring (MRM) at the positive ionization mode. […] Absolute metabolite concentrations were calculated from calibration curves and then normalized to total protein concentrations measured from the postextraction pellet (solubilized in 0.5 N NaOH) using the Folin-phenol method.[53] […] To correct for multiple comparisons, adjusted p values were determined using Holm’s method.

[3] = system: D4 CHO cells (expresses only human FRβ); conditions: 96 h; mean (standard error); previously published; cited from earlier work
SHMT2 = molecular target: T1, SHMT2 (Homo sapiens, UniProt P34897); assay: SHMT2 coupled enzyme assay with MTHFD2 (NADH production); assay type: biochemical; conditions: mean (standard error), at least three replicate assays
T1 construct: N-terminal His6-tagged SHMT2 (residues 30–504); made in house; host or cells: E. coli Rosetta (DE3)pLysS
T1 sequence (P34897 30-504): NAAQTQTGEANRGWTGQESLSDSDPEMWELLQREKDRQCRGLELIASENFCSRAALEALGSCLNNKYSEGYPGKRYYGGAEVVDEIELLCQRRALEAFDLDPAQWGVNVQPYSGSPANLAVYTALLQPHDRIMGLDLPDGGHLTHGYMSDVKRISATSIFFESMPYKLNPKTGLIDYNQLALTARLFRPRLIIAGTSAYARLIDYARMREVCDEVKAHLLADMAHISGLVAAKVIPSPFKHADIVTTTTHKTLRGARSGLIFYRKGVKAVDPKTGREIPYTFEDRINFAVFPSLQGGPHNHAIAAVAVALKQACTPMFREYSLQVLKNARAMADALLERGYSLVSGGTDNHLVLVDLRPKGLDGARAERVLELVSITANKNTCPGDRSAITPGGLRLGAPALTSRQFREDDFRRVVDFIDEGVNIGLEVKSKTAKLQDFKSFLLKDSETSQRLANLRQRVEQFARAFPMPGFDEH
Description: N-terminal His6-tagged SHMT2 (residues 30–504) and full-length MTHFD2 were expressed in Rosetta (DE3)pLysS cells. One liter cultures were grown in LB media with 100 mg/mL ampicillin and 35 mg/mL chloramphenicol at 37 °C until the OD600 was 0.6. […] The cells were pelleted and resuspended in 25 mL of 25 mM Tris–HCl, pH 7.5, 300 mM NaCl, and 5 mM β-Me. To lyse the cells, 40 mg lysozyme and 8 U DNAse I were added followed by incubation on ice for 15 min. The cells were then lysed by emulsification.
Purification of His-SHMT2 and His-MTHFD2 was by Ni-affinity chromatography (above). For further purification of His-SHMT2, pyridoxal 5′-phosphate (PLP) was added (3-fold excess to His-SHMT2) followed by incubation for 16–18 h. Further purification was by size exclusion chromatography on a Superdex 200 16/60 column (GE Healthcare) with monitoring of PLP absorbance at 435 nm. Purified His-SHMT2 was stored in 20 mM sodium phosphate buffer, pH 7.5, 100 mM potassium chloride, 0.2 mM EDTA, and 5 mM β-ME. To further purify MTHFD2, size exclusion chromatography was performed using a Superdex 200 16/60 column (GE Healthcare). His-MTHFD2 was stored in 50 mM Tris–HCl buffer, pH 7.5, 250 mM sodium chloride, 5% glycerol, and 0.5 mM tris(2-chloroethyl) phosphate (TCEP).
Kinetic measurements were recorded in triplicate in a UV-transparent 96-well plate (Costar 3635) at 298 nm using a BioTek Synergy Neo2 Plate Reader. Initial slopes were graphed against inhibitor concentrations and fit to a three-parameter nonlinear regression to calculate IC50 values for each compound (GraphPad Prism 8.0). […] SHMT2 activity was assayed by monitoring NADH production with a coupled assay including 500 nM His-SHMT2 and 10 μM His-MTHFD2 (1:200 molar ratio His-SHMT2/His-MTHFD2). NADH production by His-MTHFD2 was monitored by fluorescence at 470 nm with excitation at 360 nm (Synergy Neo2 Biotek plate reader). Inhibition constants (Ki’s) were calculated from the IC50 values using the equation Ki = IC50/([S]/KM + 1) and the Km and substrate concentration for THF. The THF concentration in the reaction was 50 mM.

Compound | IC50 [1] | Increase in M + 3 serine [2] | IC50 [3] | Ki (SHMT2)
Nc1nc2sc(CCCc3ccc(C(=O)N[C@@H](CCC(=O)O)C(=O)O)cc3)cc2c(=O)[nH]1 [Compound 1] | > 1 µM | 2–4 fold | 0.112 µM | 67.3 µM
Nc1nc2sc(CCCc3ccc(C(=O)N[C@@H](CCC(=O)O)C(=O)O)c(F)c3)cc2c(=O)[nH]1 [Compound 6, (4-(3-(2-Amino-4-oxo-3,4-dihydrothieno[2,3-d]pyrimidin-6-yl)propyl)-2-fluorobenzoyl)-L-glutamic Acid] |  | 2–4 fold |  | 27.6 µM
